SMILES strings stand for the structures.

The text below walks through data of patent US20220370467A1, “USING OF A PPAR-DELTA AGONIST IN THE TREATMENT OF KIDNEY DISEASE” (Reneo Pharmaceuticals, Inc., priority 2019, published 2022).

Experiment [1] concerns the target T1, hPPARα (Homo sapiens, UniProt Q07869).
T1 construct: expressed in transfected cells; host or cells: HEK293
T1 sequence (Q07869 239-466 limits assumed): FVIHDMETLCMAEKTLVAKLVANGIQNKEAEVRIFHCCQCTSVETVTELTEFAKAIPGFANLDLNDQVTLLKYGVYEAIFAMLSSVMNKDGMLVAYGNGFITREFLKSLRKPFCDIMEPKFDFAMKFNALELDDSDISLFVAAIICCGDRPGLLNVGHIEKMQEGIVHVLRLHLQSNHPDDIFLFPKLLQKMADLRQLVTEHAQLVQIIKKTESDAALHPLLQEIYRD
As to the kind of experiment: in vitro assay on human PPAR subtypes (transactivation): hPPARα. The class given is cell-based. From the text:
(§1) “Activation” here is defined as the abovementioned downstream response, which in the case of PPAR's is gene transcription. Gene transcription may be measured indirectly as downstream production of proteins reflective of the activation of the particular PPAR subtype under study. Alternatively, an artificial reporter construct may be employed to study the activation of the individual PPAR's expressed in cells. The ligand binding domain of the particular receptor to be studied may be fused to the DNA binding domain of a transcription factor, which produces convenient laboratory readouts, such as the yeast GAL4 transcription factor DNA binding domain. The fusion protein may be transfected into a laboratory cell line along with a Gal4 enhancer, which effects the expression of the luciferase protein. When such a system is transfected into a laboratory cell line, binding of a receptor agonist to the fusion protein will result in light emission.
(§2) The PPAR transient transactivation assay may be based on transient transfection into human HEK293 cells of two plasmids encoding a chimeric test protein and a reporter protein respectively. […] The amount of luciferase protein is measured by light emission after addition of the appropriate substrate. […]

Experiment [2] deals with T2, FXR (Homo sapiens, UniProt Q96RI1).
T2 sequence (Q96RI1 1-486): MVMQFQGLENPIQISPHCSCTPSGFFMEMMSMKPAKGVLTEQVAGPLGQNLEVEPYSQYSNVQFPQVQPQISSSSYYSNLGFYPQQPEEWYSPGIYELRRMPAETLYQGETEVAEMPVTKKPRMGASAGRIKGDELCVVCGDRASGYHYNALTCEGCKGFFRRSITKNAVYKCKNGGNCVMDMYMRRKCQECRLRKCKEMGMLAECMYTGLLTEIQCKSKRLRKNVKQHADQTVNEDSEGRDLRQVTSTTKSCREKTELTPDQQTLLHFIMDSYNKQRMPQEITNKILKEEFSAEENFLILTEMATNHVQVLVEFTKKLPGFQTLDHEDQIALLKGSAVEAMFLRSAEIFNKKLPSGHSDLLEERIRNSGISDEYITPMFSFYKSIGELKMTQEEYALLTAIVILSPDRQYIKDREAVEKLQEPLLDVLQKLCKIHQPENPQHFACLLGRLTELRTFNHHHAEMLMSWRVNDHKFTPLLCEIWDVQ
As to the kind of experiment: activity on nuclear receptor FXR.

Experiment [3] deals with T3, hPPARγ (Homo sapiens, UniProt P37231).
T3 construct: expressed in transfected cells; host or cells: HEK293
T3 sequence (P37231 238-503 limits assumed): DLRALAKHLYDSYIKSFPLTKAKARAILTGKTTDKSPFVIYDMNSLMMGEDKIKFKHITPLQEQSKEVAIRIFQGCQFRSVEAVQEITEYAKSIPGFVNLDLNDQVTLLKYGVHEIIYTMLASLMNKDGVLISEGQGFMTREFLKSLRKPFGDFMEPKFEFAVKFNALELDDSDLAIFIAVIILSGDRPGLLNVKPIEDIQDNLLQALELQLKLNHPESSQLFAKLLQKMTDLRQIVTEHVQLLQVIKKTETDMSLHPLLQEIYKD
As to the kind of experiment: in vitro assay on human PPAR subtypes (transactivation): hPPARγ. The class given is cell-based.
Excerpt: as §1, §2

Consider `Cc1cc(OC/C=C(/c2ccc(F)cc2)c2ccc(C#CCN3CCOCC3)cc2)ccc1OCC(=O)O` [Compound 1, (E)-[4-[3-(4-Fluorophenyl)-3-[4-[3-(morpholin-4-yl)propynyl]phenyl]allyloxy]-2-methyl-phenoxy]acetic acid], for which, in experiment [1], the “agonist type on PPARα” value is “partial agonist”. Moreover, the “activity on PPARα in transactivation assays” value in experiment [1] (in some cases) is on record as “negligible activity”. Also, the “activity on FXR” value in experiment [2] is listed as “did not show any”. The “agonist type on PPARγ” value in experiment [3] was “partial agonist”. For the same compound, the “activity on PPARγ in transactivation assays” value in experiment [3] (in some cases) was “negligible activity”.
